Reference: ChEMBL document CHEMBL1147091, “Prevalence of plasmid-mediated quinolone resistance determinants QnrA, QnrB, and QnrS among clinical isolates of Enterobacter cloacae in a Taiwanese hospital” (2007)
≈ marks a conversion by molar mass, not a printed value. Calls of active or inactive are those of the source. The calls are words filed in the database; no cut-off is given here.

Experiments:
Escherichia coli [1] = experiment: Decrease in susceptibility of qnrS-positive transconjugant streptomycin-resistant Escherichia coli C600; type: functional
Enterobacter cloacae [2] = experiment: Susceptibility of qnr positive Enterobacter cloacae assessed as percentage nonsusceptible isolates; type: functional
Enterobacter cloacae [3] = experiment: Susceptibility of qnr positive Enterobacter cloacae producing IMP8 and/or SHV12 assessed as percentage nonsusceptible isolates
Enterobacter cloacae [4] = experiment: Susceptibility of metallo beta lactamase and extended spectrum beta lactamase deficient qnr positive Enterobacter cloacae assessed as percentage nonsusceptible isolates; type: functional
Escherichia coli [5] = experiment: Decrease in susceptibility of qnrB-positive transconjugant streptomycin-resistant Escherichia coli C600; type: functional
Enterobacter cloacae [6] = experiment: Susceptibility of qnr positive Enterobacter cloacae; type: functional

Compound	Activity (Escherichia coli [1])	Activity (Enterobacter cloacae [2]) [%]	also measured
CC(=O)OCC1=C(C(=O)O)N2C(=O)[C@@H](NC(=O)Cc3cccs3)[C@H]2SC1	inactive	–	–
CC1(C)S[C@@H]2[C@H](NC(=O)[C@H](N)c3ccccc3)C(=O)N2[C@H]1C(=O)O	inactive	–	–
NCC[C@H](O)C(=O)N[C@@H]1C[C@H](N)[C@@H](O[C@H]2O[C@H](CN)[C@@H](O)[C@H](O)[C@H]2O)[C@H](O)[C@H]1O[C@H]1O[C@H](CO)[C@@H](O)[C@H](N)[C@H]1O [AMIKACIN]	–	3.5	–
CO/N=C(\C(=O)N[C@@H]1C(=O)N2C(C(=O)O)=C(COC(C)=O)CS[C@H]12)c1csc(N)n1 [CEFOTAXIME]	–	97.8	–
CC(C)(O/N=C(\C(=O)N[C@@H]1C(=O)N2C(C(=O)[O-])=C(C[n+]3ccccc3)CS[C@H]12)c1csc(N)n1)C(=O)O [CEFTAZIDIME]	–	86	Activity (Enterobacter cloacae [3]): 100%; Activity (Enterobacter cloacae [4]): 29.4%
O=C(O)c1cn(C2CC2)c2cc(N3CCNCC3)c(F)cc2c1=O [CIPROFLOXACIN]	0.25 µg/mL	–	–
C[C@@H](O)[C@H]1C(=O)N2C(C(=O)O)=C(SCCNC=N)C[C@H]12 [IMIPENEM ANHYDROUS]	–	9.3	–
CCn1cc(C(=O)O)c(=O)c2ccc(C)nc21 [NALIDIXIC ACID]	–	100	MIC (Escherichia coli [5]): 16 µg/mL (≈ 68.9 µM); MIC (Escherichia coli [1]; Escherichia coli, C600): 16 µg/mL (≈ 68.9 µM); MIC90 (Enterobacter cloacae [6]): > 256 µg/mL
